The structures appear in SMILES notation. Where two headings read alike, the source gives them in different places.

In one assay the test system is Plasmopara viticola. Briefly: Activity against peronospora of grapevines caused by Plasmopara viticola. It counts as in vivo. As to conditions: grapevines cultivar Riesling. As for the experimental part:
The active compounds, separately or jointly, were prepared as a stock solution comprising 0.25% by weight of active compound in acetone or DMSO. 1% by weight of the emulsifier Uniperol® EL (wetting agent having emulsifying and dispersant action based on ethoxylated alkylphenols) was added to this solution, and the mixture was diluted with water to the desired concentration.
Use example 2—Activity against peronospora of grapevines caused by Plasmopara viticola
Leaves of potted grapevines of the cultivar “Riesling” were sprayed to runoff point with an aqueous suspension having the concentration of active compounds stated below. The next day, the undersides of the leaves were inoculated with an aqueous zoospore suspension of Plasmopara viticola. The grapevines were then initially placed in a water-vapor-saturated chamber at 24° C. for 48 hours and then in a greenhouse at temperatures between 20 and 30° C. for 5 days. After this period of time, the plants were, to promote sporangiophore eruption, again placed in a humid chamber for 16 hours. The extent of the development of the infection on the undersides of the leaves was then determined visually.
Evaluation was carried out analogously to example 1.

The next assay relates to Phytophthora infestans. It counts as in vivo. Particulars: tomato plants, protective spray, assessed after 6 days.

Consider `CC1CCN(c2c(-c3c(F)cc(F)cc3F)c(Cl)nc3ncnn23)CC1` [I, 5-chloro-7-(4-methylpiperidin-1-yl)-6-(2,4,6-trifluorophenyl)-[1,2,4]triazolo[1,5-a]pyrimidine], for which the “Efficacy in % of the untreated control” value in the assay with Plasmopara viticola (1 ppm in the spray liquor) is reported as 4%; in the assay on Plasmopara viticola (4 ppm in the spray liquor), 52%; with Phytophthora infestans (63 ppm in the spray liquor), 9%.

As to `CC1CCN(c2c(-c3c(F)cccc3Cl)c(Cl)nc3ncnn23)CC1` [comparative A], in the assay with Phytophthora infestans (63 ppm in the spray liquor), the “Efficacy in % of the untreated control” value amounted to 0%.

`CC(C)(C)C(O)(CCc1ccc(Cl)cc1)Cn1cncn1` (racemic) [II, (R,S)-1-(4-chlorophenyl)-4,4-dimethyl-3-(1H-1,2,4-triazol-1-ylmethyl)pentan-3-ol]: the “Efficacy in % of the untreated control” value in the assay with Plasmopara viticola (1 ppm in the spray liquor) turned out to be 0%; with Plasmopara viticola (4 ppm in the spray liquor), 28%; with Phytophthora infestans (16 ppm in the spray liquor), 0%; in the assay with Phytophthora infestans (250 ppm in the spray liquor) it was 0%.

Take `C[C@H](Nc1c(-c2c(F)cc(F)cc2F)c(Cl)nc2ncnn12)C(F)(F)F` [comparative B]: in the assay on Phytophthora infestans (63 ppm in the spray liquor), the “Efficacy in % of the untreated control” value is on record as 9%.

For the origin of these results see patent US20070117813A1 (priority 2003, published 2007).
